From patent publication US9247759B2, “Identification of human T2R receptors that respond to bitter compounds that elicit the bitter taste in compositions, and the use thereof in assays to identify compounds that inhibit (block) bitter taste in compositions and use thereof” (SENOMYX, INC., priority 2007, dated 2016)
Like-named read-outs stand apart in the source and are kept apart here.

Target: hT2R8 (Homo sapiens (Human), UniProt Q9NYW2)
Assay: hT2R8 antagonist high-throughput FLIPR assay, stable cell line with G16g44, agonist andrographolide
Format: cell-based
Procedure, shortened: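 HEK293 cells stably co-expressing hT2R8 and chimeric G16g44, read on FLIPR. Test compounds added together with andrographolide (200 μM), which drives the receptor to 70–80% of maximal activity; antagonism seen as reduced agonist response.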

[1] = table after Example 10-97, read-out: hT2R8 IC50
[2] = unit uM, read-out: IC50 on hT2R08 bitter receptor
[3] = read-out: IC50 on hT2R8 bitter receptor
[4] = table after Example 12-37, read-out: hT2R8 IC50

Sequence of hT2R8 (Q9NYW2 whole entry): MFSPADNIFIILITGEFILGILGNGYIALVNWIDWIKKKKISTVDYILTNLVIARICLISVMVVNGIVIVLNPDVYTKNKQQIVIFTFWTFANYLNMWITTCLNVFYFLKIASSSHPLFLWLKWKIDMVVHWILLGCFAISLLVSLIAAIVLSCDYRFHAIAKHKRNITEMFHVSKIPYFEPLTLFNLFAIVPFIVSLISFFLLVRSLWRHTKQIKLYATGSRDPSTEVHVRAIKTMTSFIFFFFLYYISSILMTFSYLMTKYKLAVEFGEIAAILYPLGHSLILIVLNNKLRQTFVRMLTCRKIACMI

Row | Structure (SMILES) | IC50 [1] | IC50 [3] | further results
1 | Cc1noc(C)c1Cn1cc(NS(=O)(=O)c2ccccc2C#N)cn1 [Example 4-99, 2-cyano-N-(1-((3,5-dimethylisoxazol-4-yl)methyl)-1H-pyrazol-4-yl)benzenesulfonamide] |  |  | IC50 (Table A, read-out: hT2R8 IC50): 1.36 µM
2 | COCCOc1cccc(CN2CC(=O)N(c3cnn(Cc4c(C)noc4C)c3)C2=O)c1 [Example 10-14, 3-(1-((3,5-dimethylisoxazol-4-yl)methyl)-1H-pyrazol-4-yl)-1-(3-(2-methoxyethoxy)benzyl)imidazolidine-2,4-dione] | 0.071 µM |  | IC50 [2]: 0.07 µM
3 | Cc1noc(C)c1Cn1cc(NC(=O)c2cccnc2)cn1 [Example 4-46, N-(1-((3,5-dimethylisoxazol-4-yl)methyl)-1H-pyrazol-4-yl)nicotinamide] |  |  | IC50 (Table A, read-out: hT2R8 IC50): 1.05 µM
4 | Cc1noc(C)c1Cn1cc(N2C(=O)NC(C)C2=O)cn1 (centres unmarked) [Example 10-41, 3-(1-((3,5-dimethylisoxazol-4-yl)methyl)-1H-pyrazol-4-yl)-5-methylimidazolidine-2,4-dione] | 1.28 µM | 1.3 µM | 
5 | Cc1noc(C)c1Cn1cc(NC(=O)c2ccc3nccnc3c2)cn1 [Example 4-82, N-(1-((3,5-dimethylisoxazol-4-yl)methyl)-1H-pyrazol-4-yl)quinoxaline-6-carboxamide] |  |  | IC50 (Table A, read-out: hT2R8 IC50): 0.8 µM
6 | Cc1noc(C)c1Cn1cc(N2C(=O)CN(Cc3cccc(CO)n3)C2=O)cn1 [Example 10-71, 3-(1-((3,5-dimethylisoxazol-4-yl)methyl)-1H-pyrazol-4-yl)-1-((6-(hydroxymethyl)pyridin-2-yl)methyl)imidazolidine-2,4-dione] | 0.721 µM | 0.72 µM | 
7 | CCCn1c(=O)n(-c2cnn(Cc3c(C)noc3C)c2)c(=O)n1Cc1ccccc1 [Example 10-93, 1-benzyl-4-(1-((3,5-dimethylisoxazol-4-yl)methyl)-1H-pyrazol-4-yl)-2-propyl-1,2,4-triazolidine-3,5-dione] | 0.062 µM | 0.06 µM | 
8 | Cc1noc(C)c1Cn1cc(NC(=O)[C@H](C)c2ccccc2)cn1 [Example 4-42, (R)-N-(1-((3,5-dimethylisoxazol-4-yl)methyl)-1H-pyrazol-4-yl)-2-phenylpropanamide] |  |  | IC50 (Table A, read-out: hT2R8 IC50): 3.72 µM
9 | Cc1cc2cc(C(=O)Nc3cnn(Cc4c(C)noc4C)c3)ccc2o1 [Example 4-75, N-(1-((3,5-dimethylisoxazol-4-yl)methyl)-1H-pyrazol-4-yl)-2-methylbenzofuran-5-carboxamide] |  |  | IC50 (Table A, read-out: hT2R8 IC50): 2.1 µM
10 | Cc1noc(C)c1Cn1cc(N2C(=O)CN(Cc3ccc(C#N)cc3)C2=O)cn1 [Example 10-32, 4-((3-(1-((3,5-dimethylisoxazol-4-yl)methyl)-1H-pyrazol-4-yl)-2,4-dioxoimidazolidin-1-yl)methyl)benzonitrile] | 0.048 µM |  | IC50 [2]: 0.05 µM
11 | COc1cc(C(=O)Nc2cnn(Cc3c(C)noc3C)c2)cc2c1OCCO2 [Example 4-93, N-(1-((3,5-dimethylisoxazol-4-yl)methyl)-1H-pyrazol-4-yl)-8-methoxy-2,3-dihydrobenzo[b][1,4]dioxine-6-carboxamide] |  | 0.7 µM | 
12 | COc1cccc(CNC(=O)CC2NC(=O)N(c3cnn(Cc4c(C)noc4C)c3)C2=O)c1 (centres unmarked) [Example 10-50, 2-(1-(1-((3,5-dimethylisoxazol-4-yl)methyl)-1H-pyrazol-4-yl)-2,5-dioxoimidazolidin-4-yl)-N-(3-methoxybenzyl)acetamide] | 1.77 µM | 1.7 µM | 
13 | Cc1noc(C)c1Cn1cc(N2C(=O)NC(Cc3ccc(O)cc3)C2=O)cn1 (centres unmarked) [Example 10-59, 3-(1-((3,5-dimethylisoxazol-4-yl)methyl)-1H-pyrazol-4-yl)-5-(4-hydroxybenzyl)imidazolidine-2,4-dione] | 0.327 µM | 0.33 µM | 
14 | Cc1noc(C)c1Cn1cc(N2CCN(Cc3ccccc3)C2=O)cn1 [Example 10-88, 1-benzyl-3-(1-((3,5-dimethylisoxazol-4-yl)methyl)-1H-pyrazol-4-yl)imidazolidin-2-One] | 1.25 µM | 0.71 µM | 
15 | Cc1noc(C)c1Cn1cc(N2C(=O)NC(C(C)C)C2=O)cn1 (centres unmarked) [Example 10-62, 3-(1-((3,5-dimethylisoxazol-4-yl)methyl)-1H-pyrazol-4-yl)-5-isopropylimidazolidine-2,4-dione] | 1.44 µM | 1.1 µM | 
16 | Cc1noc(C)c1Cn1cc(N2C(=O)NC(Cc3ccc(O)c(O)c3)C2=O)cn1 (centres unmarked) [Example 10-60, 5-(3,4-dihydroxybenzyl)-3-(1-((3,5-dimethylisoxazol-4-yl)methyl)-1H-pyrazol-4-yl)imidazolidine-2,4-dione] | 0.513 µM | 0.51 µM | 
17 | COC(=O)c1sccc1S(=O)(=O)Nc1cnn(Cc2c(C)noc2C)c1 [Example 4-104, methyl 3-(N-(1-((3,5-dimethylisoxazol-4-yl)methyl)-1H-pyrazol-4-yl)sulfamoyl)thiophene-2-carboxylate] |  |  | IC50 (Table A, read-out: hT2R8 IC50): 1.25 µM

Row | Structure (SMILES) | IC50 [1] | IC50 [3] | further results
18 | COc1cccc(CN2CC(=O)N(c3cnn(Cc4c(C)noc4C)c3)C2=O)n1 [Example 10-75, 3-(1-((3,5-dimethylisoxazol-4-yl)methyl)-1H-pyrazol-4-yl)-1-((6-methoxypyridin-2-yl)methyl)imidazolidine-2,4-dione] | 0.229 µM | 0.23 µM | 
19 | CCOc1cccc(C(=O)Nc2cnn(Cc3c(C)noc3C)c2)c1 [Example 4-59, N-(1-((3,5-dimethylisoxazol-4-yl)methyl)-1H-pyrazol-4-yl)-3-ethoxybenzamide] |  |  | IC50 (Table A, read-out: hT2R8 IC50): 0.22 µM
20 | Cc1noc(C)c1Cn1cc(N2C(=O)NC(CC(=O)Nc3ccccc3)C2=O)cn1 (centres unmarked) [Example 10-48, 2-(1-(1-((3,5-dimethylisoxazol-4-yl)methyl)-1H-pyrazol-4-yl)-2,5-dioxoimidazolidin-4-yl)-N-phenylacetamide] | 0.747 µM | 0.75 µM | 
21 | Cc1noc(C)c1Cn1cc(-n2c(=O)n(C)n(CCOc3ccccc3)c2=O)cn1 [Example 10-67, 4-(1-((3,5-dimethylisoxazol-4-yl)methyl)-1H-pyrazol-4-yl)-1-methyl-2-(2-phenoxyethyl)-1,2,4-triazolidine-3,5-dione] |  | 0.031 µM | 
22 | Cc1noc(C)c1Cn1cc(N2C(=O)N(Cc3cccc(C(F)(F)F)c3)C(C)(C)C2=O)cn1 [Example 12-84, 3-(1-((3,5-dimethylisoxazol-4-yl)methyl)-1H-pyrazol-4-yl)-5,5-dimethyl-1-(3-(trifluoromethyl)benzyl)imidazolidine-2,4-dione] |  |  | IC50 [4]: 1.54 µM
23 | Cc1noc(C)c1Cn1cc(N2C(=O)CN(CCc3cccc(Cl)c3)C2=O)cn1 [Example 10-82, 1-(3-chlorophenethyl)-3-(1-((3,5-dimethylisoxazol-4-yl)methyl)-1H-pyrazol-4-yl)imidazolidine-2,4-dione] | 0.982 µM | 0.2 µM | 
24 | Cc1noc(C)c1Cn1cc(N2C(=O)N(Cc3ccc(C#N)cc3)C(C)(C)C2=O)cn1 [Example 12-79, 4-((3-(1-((3,5-dimethylisoxazol-4-yl)methyl)-1H-pyrazol-4-yl)-5,5-dimethyl-2,4-dioxoimidazolidin-1-yl)methyl)benzonitrile] |  |  | IC50 [4]: 0.05 µM
25 | Cc1noc(C)c1Cn1cc(N2C(=O)N(Cc3ccccn3)C(C)(C)C2=O)cn1 [Example 12-61, 3-(1-((3,5-dimethylisoxazol-4-yl)methyl)-1H-pyrazol-4-yl)-5,5-dimethyl-1-(pyridin-2-ylmethyl)imidazolidine-2,4-dione] |  |  | IC50 [4]: 0.26 µM
26 | COc1ccc(CN2C(=O)N(c3cnn(Cc4c(C)noc4C)c3)C(=O)C23CC3)cc1O [Example 12-12, 6-(1-((3,5-dimethylisoxazol-4-yl)methyl)-1H-pyrazol-4-yl)-4-(3-hydroxy-4-methoxybenzyl)-4,6-diazaspiro[2.4]heptane-5,7-dione] |  | 0.02 µM | 
27 | COc1ccc(CC(=O)Nc2cnn(Cc3c(C)noc3C)c2)cc1 [Example 4-33, N-(1-((3,5-dimethylisoxazol-4-yl)methyl)-1H-pyrazol-4-yl)-2-(4-methoxyphenyl)acetamide] |  |  | IC50 (Table A, read-out: hT2R8 IC50): 0.99 µM
28 | Cc1noc(C)c1Cn1cc(N2C(=O)NC(CC(C)C)C2=O)cn1 (centres unmarked) [Example 10-61, 3-(1-((3,5-dimethylisoxazol-4-yl)methyl)-1H-pyrazol-4-yl)-5-isobutylimidazolidine-2,4-dione] | 0.912 µM | 1 µM | 
29 | CNC(=O)c1cccc(CN2CC(=O)N(c3cnn(Cc4c(C)noc4C)c3)C2=O)c1 [Example 10-9, 3-((3-(1-((3,5-dimethylisoxazol-4-yl)methyl)-1H-pyrazol-4-yl)-2,4-dioxoimidazolidin-1-yl)methyl)-N-methylbenzamide] | 0.141 µM | 0.14 µM | 
30 | Cc1cccc(C)c1CN1C(=O)N(c2cnn(Cc3c(C)noc3C)c2)C(=O)C1(C)C [Example 12-85, 1-(2,6-dimethylbenzyl)-3-(1-((3,5-dimethylisoxazol-4-yl)methyl)-1H-pyrazol-4-yl)-5,5-dimethylimidazolidine-2,4-dione] |  |  | IC50 [4]: 1.58 µM
31 | CO[C@H](C(=O)Nc1cnn(Cc2c(C)noc2C)c1)c1ccccc1 [Example 4-67, (S)-N-(1-((3,5-dimethylisoxazol-4-yl)methyl)-1H-pyrazol-4-yl)-2-methoxy-2-phenylacetamide] |  |  | IC50 (Table A, read-out: hT2R8 IC50): 8.6 µM
32 | Cc1noc(C)c1Cn1cc(N2C(=O)N(Cc3c(F)cccc3F)C(C)(C)C2=O)cn1 [Example 12-44, 1-(2,6-difluorobenzyl)-3-(1-((3,5-dimethylisoxazol-4-yl)methyl)-1H-pyrazol-4-yl)-5,5-dimethylimidazolidine-2,4-dione] |  |  | IC50 [4]: 0.1 µM
33 | COc1ccc(CN2C(=O)N(c3cnn(Cc4c(C)noc4C)c3)C(=O)C2(C)C)cc1 [Example 12-33, 3-(1-((3,5-dimethylisoxazol-4-yl)methyl)-1H-pyrazol-4-yl)-1-(4-methoxybenzyl)-5,5-dimethylimidazolidine-2,4-dione] |  | 0.11 µM | 
34 | COc1ccc(CCN2CC(=O)N(c3cnn(Cc4c(C)noc4C)c3)C2=O)cc1OC [Example 10-87, 1-(3,4-dimethoxyphenethyl)-3-(1-((3,5-dimethylisoxazol-4-yl)methyl)-1H-pyrazol-4-yl)imidazolidine-2,4-dione] | 0.137 µM | 0.26 µM | 
